Test results: US20180267043A1, “USE OF BIOMARKERS FOR PREDICTING CLINICAL SENSITIVITY TO CANCER TREATMENT” (CELGENE CORPORATION, priority 2014, published 2018)

Experiments:
FLAG-HA tagged CRBN = biological target: T1, FLAG-HA tagged CRBN (Homo sapiens, UniProt Q96SW2); experiment: Anti-FLAG immunoprecipitation of FLAG-HA CRBN from 293 HEK lysate, mass spectrometry; assay type: binding; settings: 1 μM, whole cell lysate of 293 HEK cells, vs DMSO
T1 construct: HA; expressed in transfected cells
Procedure: Whole cell lysate of 293 HEK cells stably expressing FLAG-HA tagged CRBN was treated with 1 μM Compound C or DMSO vehicle control. Proteins associated with FLAG-HA CRBN were immunoprecipitated with anti-FLAG affinity gel, separated on SDS-PAGE, silver-stained, and analyzed by mass spectrometry. […] Arrows point to the expected positions of DDB1, GSPT1, PABP1, and CRBN.

[1] = tested on: GSPT1/eRF3a, GSPT2/eRF3b, and HBS1L/eRF3c; experiment: Immunoblotting of CRBN/Compound C substrates in 293 HEK cells; assay type: cell-based, human; settings: 8 hours
Procedure: Immunblotting analysis was performed to confirm GSPT1/eRF3a, GSPT2/eRF3b, and HBS1L/eRF3c as authentic substrates of the CRBN/Compound C complex. 293 HEK cells transiently transfected with HA-tagged HBS1L or FLAG-tagged GSPT2 were treated with Compound at the indicated concentrations for 8 hours.

HEK 293FT cells [2] = experiment: CellTiter-Glo cell viability assay, HEK 293FT cells with GSPT1 overexpression; assay type: cell-based, human
Procedure: The effect of overexpression of GSPT1 on Compound C-induced growth inhibition was tested in HEK 293FT cells. 293 cells stably expressing GSPT1 driven by three different promoters were generated. To these cells, Compound C was added at concentration of 0, 1 nM, 10 nM, 100 nM, or 1000 nM. Cell proliferation was measured by CellTiter-Glo cell viability assay (RLU-Relative Luminescent Unit) at day 2. […] The expression level of GSPT1 was measured at 10 hours after compound treatment in the right part of FIG. 7. […] Thus, overexpression of GSPT1 confers Compound C resistance to HEK 293FT cells.

HEK 293FT cells [3] = experiment: CellTiter-Glo cell viability assay, HEK 293FT cells with GSPT1 shRNA; assay type: cell-based, human
Procedure: The effect of depletion of GSPT1 on Compound C-induced anti-proliferation was examined in HEK 293FT cells. Cells were infected with either expression vector alone, or vector containing control shRNA or GSPT1-specific shRNA. The cells were then treated with Compound C at different concentrations. Cell proliferation was measured by the CellTiter-Glo cell viability assay (RLU-Relative Luminescent Unit).

U937 = experiment: CellTiter-Glo cell viability assay, U937; assay type: cell-based, human; settings: 48 hours
Procedure: The effect of overexpression of GSPT1 on the anti-proliferative effect of Compound C was determined in human histiocytic lymphoma cell line U937 and human leukemia cell line Molm13. Treatment compounds were titrated from 0.1 nM to 1 μM. Cell proliferation was measured by CellTiter-Glo cell viability assay at 48 hours after treatment.

[4] = tested on: Acute Myelogenous Leukemia (AML3) cell line; experiment: CellTiter-Glo cell viability assay after GSPT1 knockdown, AML3; assay type: cell-based, human
Procedure: The effect of depletion of GSPT1 on the anti-proliferative effect of Compound C was determined in human Acute Myelogenous Leukemia (AML3) cell line. Cells were infected with lentiviral vectors expressing control shRNA, shGSPT1-1 or shGSPT1-3 for 7 days and then treated with DMSO, Compound C in a titration from 0.0001 μM to 1 μM. Two days after treatment, cell proliferation was measured by CellTiter-Glo cell viability assay.

[5] = tested on: Human Acute Myeloblastic Leukemia Cell Line KG1; experiment: Anti-proliferative effect after GSPT1 knockdown, KG1 (FIG. 12A); assay type: cell-based
PERK pathway of UPR = experiment: RNA level of PERK pathway components in 293FT HEK cells; assay type: cell-based, human; settings: parental and control shRNA cells, 1 nM or 10 nM, 24 hours
Procedure: The mechanism of Compound C-induced Unfolded Protein Response (UPR) was studied in 293FT HEK cells. Parental cells, CRBN−/− cells, cells expressing control shRNA, or cells expressing GSPT1-specific shRNA were treated with DMSO, 1 nM, or 10 nM Compound C. The RNA level of variant cellular components along the PERK pathway of UPR was measured and normalized with GAPDH at 24 hours after treatment.

[6] = tested on: GSPT1, IKZF1, IKZF3, UPR or apoptosis pathways; experiment: Protein level of UPR and apoptosis components in DF15 cells; assay type: cell-based, human; settings: DF15, 20 nM, 5 or 10 hours
Procedure: (§1) Cells were treated with DMSO alone or 20 nM Compound C. After 5 or 10 hours, the expression level of various cellular components along UPR or apoptosis pathways was measured. […] Loss of BIP immunoreactivity indicates an induction of UPR.

PERK/EIF2a/ATF4 pathway = experiment: mRNA expression of PERK/EIF2a/ATF4 pathway components in DF15 MM cells; assay type: cell-based, human; settings: 20 nM
Procedure: as §1

XBP1 and ATF6 pathways = experiment: RNA level of XBP1 and ATF6 pathway components in DF15 MM cells; assay type: cell-based, human; settings: DF15, 20 nM, 5, 10, or 23 hours
Procedure: The mechanism of Compound C-activated XBP1 and ATF6 pathways was studied in DF15 MM cells. Cells were treated with DMSO or 20 nM Compound C for 5, 10, or 23 hours. The RNA level of variant cellular components along the XBP1 and ATF6 pathways was measured and normalized with GAPDH.

RPMI-8226 = experiment: Sensitivity to compound-induced ER stress and apoptosis, RPMI-8226; assay type: cell-based, human
Procedure: (§2) The GSPT1 dependency was shown by GSPT1-specific shRNA knockdown experiment. The GSPT1 degradation efficiency was shown by Western Blot. The induction of ATF3 or DDIT3 was measured by quantitative RT-PCR. […] Time needed for Compound C-induced ER stress or Compound C-induced apoptosis was summarized. […] High ER demand may contribute to the sensitivity of certain cancer cells to the treatment of Compound C.

[7] = tested on: KG1, DF15, AML3, and 293FT; experiment: Sensitivity to compound-induced ER stress and apoptosis, KG1, DF15, AML3, 293FT; assay type: cell-based, human
Procedure: as §2

T1 sequence (Q96SW2 whole entry): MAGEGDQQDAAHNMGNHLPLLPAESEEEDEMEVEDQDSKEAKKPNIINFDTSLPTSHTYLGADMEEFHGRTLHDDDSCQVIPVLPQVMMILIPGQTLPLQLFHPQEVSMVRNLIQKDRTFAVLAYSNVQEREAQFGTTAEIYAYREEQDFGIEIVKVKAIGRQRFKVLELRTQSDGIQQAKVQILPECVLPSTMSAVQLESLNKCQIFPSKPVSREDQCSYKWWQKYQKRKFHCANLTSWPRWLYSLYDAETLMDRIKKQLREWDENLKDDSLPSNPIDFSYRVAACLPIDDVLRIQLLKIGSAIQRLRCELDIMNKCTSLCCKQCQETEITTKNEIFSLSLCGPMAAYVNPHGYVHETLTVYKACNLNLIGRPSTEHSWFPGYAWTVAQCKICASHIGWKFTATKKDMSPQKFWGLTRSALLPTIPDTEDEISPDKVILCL

Cc1ccc(NC(=O)NCc2ccc3c(c2)CN(C2CCC(=O)NC2=O)C3=O)cc1Cl (centres unmarked) [Compound C, 1-(3-chloro-4-methylphenyl)-3-((2-(2,6-dioxopiperidin-3-yl)-1-oxoisoindolin-5-yl)methyl)urea]
Proteins associated with FLAG-HA CRBN identified as CAPs (FLAG-HA tagged CRBN): PABP1, GSPT1/eRF3a, GSPT2/eRF3b, and HBS1L/eRF3c were identified as CAPs only when CRBN was bound with Compound C
Binding partners of CRBN induced by compound binding [1]: GSPT1/eRF3a, GSPT2/eRF3b, and HBS1L/eRF3c are binding partners of CRBN induced by Compound C binding
Degradation of GSPT1/eRF3a, GSPT2/eRF3b, and HBS1L/eRF3c ([1]; increased concentration): induces degradation
Cell proliferation (growth inhibition) (HEK 293FT cells [2]; GSPT1 overexpression driven by different promoters, 0-1000 nM, day 2): confers various degrees of resistance to Compound C-induced growth inhibition
Cell proliferation (compound resistance) (HEK 293FT cells [2]; cells expressing CMV-GSPT1): exhibit the highest level of Compound C resistance
Cell proliferation (HEK 293FT cells [2]; parental cells, 0-1000 nM, day 2): inhibits cell proliferation in parental cells
Cell proliferation (HEK 293FT cells [3]; CRBN+/+ parental cells, expression vector alone, or control shRNA): show sensitivity to Compound C-induced anti-proliferation
Cell proliferation (HEK 293FT cells [3]; CRBN−/− cells): cannot inhibit cell proliferation
Cell proliferation (HEK 293FT cells [3]; GSPT1-specific shRNA knockdown): growth inhibition starting at even lower concentration of compound treatment
Anti-proliferative effect (U937; U937, exogenous GSPT1 overproduced via EF1a promoter): the anti-proliferative effect of Compound C reduces
Anti-proliferative effect (U937; U937 CRBN −/− cells): completely abolished
Cell proliferation (U937; U937 parental cells, 0.1 nM to 1 μM): inhibits cell proliferation
Anti-proliferative effect ([4]; AML3 (FIG. 12A)): exhibited anti-proliferative effect
Anti-proliferative effect ([4]; AML3 expressing shGSPT1-1 or shGSPT1-3 vs parental or control shRNA, 0.0001 μM to 1 μM, two days): increased anti-proliferative effect
Anti-proliferative effect ([5]; KG1 (FIG. 12A)): exhibited anti-proliferative effect
Anti-proliferative effect ([5]; KG1, GSPT1 downregulated by shGSPT1-1 or shGSPT1-3): the anti-proliferative effect increased
RNA level of ATF4, ATF3, DDIT3, PPP1R15A, and GADD45A normalized with GAPDH (PERK pathway of UPR): induces expression of ATF4, ATF3, DDIT3, PPP1R15A, and GADD45A
Degradation of GSPT1, IKZF1, and IKZF3 [6]: induces degradation of GSPT1, IKZF1, and IKZF3
Immunoreactivity of antibodies recognizing KDEL motif and BIP C-terminal epitope [6]: loss of immunoreactivity
Level of pEIF2α, ATF4, ATF3, DDIT3, cleaved caspase 3, and cleaved PARP [6]: increases the level
Expression of ATF4, ATF3, DDIT3, PPP1R15A, and GADD45A (FIG. 16C) (PERK/EIF2a/ATF4 pathway): Compound C-induced expression of ATF4, ATF3, DDIT3, PPP1R15A, and GADD45A
RNA level of ATF6 pathway components (XBP1, EDEM1, HYOU1, HSPA5) (XBP1 and ATF6 pathways): induces expression
RNA level of XBP1 pathway components (SEC24D, DNAJB9, XBP1, EDEM1, HYOU1) (XBP1 and ATF6 pathways): induces expression
Sensitivity to compound-induced ER stress and apoptosis (RPMI-8226): resistant to Compound C-induced ER stress and apoptosis
Sensitivity to the compound ([7]; KG1, DF15, AML3, and 293FT): exhibit different levels of sensitivity to Compound C
Order in time of compound-induced ER stress and apoptosis ([7]; cancer cell lines of FIG. 21): Compound C-induced ER stress precedes Compound C-induced apoptosis
